Assays:
Experiment in all cases: Screen Quest Fluo-8 No Wash Calcium Assay (Bz-ATP evoked Ca2+ influx, FLIPR)
Type in all cases: cell-based
P2X7 receptor [1] = target: T1, P2X7 receptor (Mus musculus, UniProt Q9Z1M0); settings: mP2X7; HEK-293 cells stably transfected with P2X7 receptor, Bz-ATP at EC80, Fluo-8 NW; potency ranges A-D
T1 construct: mP2X7 (IC50; nM); other: mP2X7; HEK-293 cells stably transfected with P2X7 receptor, Bz-ATP at EC80, Fluo-8 NW; potency
T1 sequence (Q9Z1M0 1-595): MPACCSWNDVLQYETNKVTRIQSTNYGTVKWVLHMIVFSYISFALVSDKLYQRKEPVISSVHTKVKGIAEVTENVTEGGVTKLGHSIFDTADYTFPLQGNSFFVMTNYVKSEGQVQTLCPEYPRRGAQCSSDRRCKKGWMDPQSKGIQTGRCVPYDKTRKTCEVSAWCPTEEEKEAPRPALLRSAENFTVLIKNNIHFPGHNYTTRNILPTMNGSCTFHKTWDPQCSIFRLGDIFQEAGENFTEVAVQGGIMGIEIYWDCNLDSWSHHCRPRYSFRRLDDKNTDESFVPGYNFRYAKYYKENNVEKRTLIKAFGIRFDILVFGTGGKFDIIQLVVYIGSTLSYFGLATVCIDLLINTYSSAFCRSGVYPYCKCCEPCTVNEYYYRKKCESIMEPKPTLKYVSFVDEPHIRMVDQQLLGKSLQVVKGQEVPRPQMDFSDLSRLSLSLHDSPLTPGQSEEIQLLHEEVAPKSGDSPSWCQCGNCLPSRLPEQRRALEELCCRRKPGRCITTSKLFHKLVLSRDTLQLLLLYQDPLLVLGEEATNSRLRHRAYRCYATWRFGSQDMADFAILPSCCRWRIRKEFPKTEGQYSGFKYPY
Method: (§1) Extracellular binding of Bz-ATP to P2X7 receptor opens the channel and allows Ca2+ influx into the cells. […] Once inside the cell, the lipophilic blocking groups of Fluo-8 are cleaved by non-specific cell esterases, resulting in a negatively-charged fluorescent dye that stays inside cells. Its fluorescence increases upon binding to calcium.
(§2) HEK-293 cells stably transfected with P2X7 receptor were seeded overnight in growth medium at 10,000 to 20,000 cell/well in 384-well plate. 24 hours later, the medium was removed and the cells were pre-loaded at RT for 1 hour with 20 μL/w of Fluo-8 NW. Then 10 μL/w of tests compounds and reference antagonist A438079 at 3×-concentration were injected with the […] and the kinetic response over a period of five minutes was monitored. A second injection of 15 μL/w of 3× reference activator (Bz-ATP at EC80) was performed with the […] and the signal of the emitted fluorescence was recorded for additional three minutes. All the experiment was carried out in a Low Divalent Cation Assay Buffer (0.3 mM Ca^2+ and 0 mM Mg^2+). The effect of the test compounds was measured as percent inhibition vs the reference antagonist and IC50 values were calculated accordingly.

P2X7 receptor [2] = target: T2, P2X7 receptor (Rattus norvegicus, UniProt Q64663); settings: rP2X7; HEK-293 cells stably transfected with P2X7 receptor, Bz-ATP at EC80, Fluo-8 NW; potency ranges A-D
T2 construct: rP2X7 (IC50; nM); other: rP2X7; HEK-293 cells stably transfected with P2X7 receptor, Bz-ATP at EC80, Fluo-8 NW; potency
T2 sequence (Q64663 1-595): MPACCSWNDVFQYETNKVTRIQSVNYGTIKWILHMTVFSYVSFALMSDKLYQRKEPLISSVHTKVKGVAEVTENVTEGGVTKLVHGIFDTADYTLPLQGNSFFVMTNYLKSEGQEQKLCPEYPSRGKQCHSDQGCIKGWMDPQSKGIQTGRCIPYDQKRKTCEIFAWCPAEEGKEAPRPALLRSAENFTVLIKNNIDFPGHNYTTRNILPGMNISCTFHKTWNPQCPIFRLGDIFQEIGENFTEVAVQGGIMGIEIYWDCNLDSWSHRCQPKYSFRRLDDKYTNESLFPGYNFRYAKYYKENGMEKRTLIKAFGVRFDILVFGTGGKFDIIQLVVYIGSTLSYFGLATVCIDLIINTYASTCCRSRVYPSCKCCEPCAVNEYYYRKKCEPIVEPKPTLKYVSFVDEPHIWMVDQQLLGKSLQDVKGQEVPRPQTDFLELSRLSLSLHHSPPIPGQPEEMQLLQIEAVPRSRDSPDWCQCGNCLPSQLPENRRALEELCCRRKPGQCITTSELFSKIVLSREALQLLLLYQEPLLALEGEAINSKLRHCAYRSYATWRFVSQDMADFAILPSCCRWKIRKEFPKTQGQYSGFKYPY
Method: as §1, §2

P2X7 receptor [3] = target: T3, P2X7 receptor (Homo sapiens, UniProt Q99572); parameters: hP2X7 (IC50; nM); other: hP2X7; HEK-293 cells stably transfected with P2X7 receptor, Bz-ATP at EC80, Fluo-8 NW; potency; settings: hP2X7; HEK-293 cells stably transfected with P2X7 receptor, Bz-ATP at EC80, Fluo-8 NW; potency ranges A-D
T3 sequence (Q99572 1-595): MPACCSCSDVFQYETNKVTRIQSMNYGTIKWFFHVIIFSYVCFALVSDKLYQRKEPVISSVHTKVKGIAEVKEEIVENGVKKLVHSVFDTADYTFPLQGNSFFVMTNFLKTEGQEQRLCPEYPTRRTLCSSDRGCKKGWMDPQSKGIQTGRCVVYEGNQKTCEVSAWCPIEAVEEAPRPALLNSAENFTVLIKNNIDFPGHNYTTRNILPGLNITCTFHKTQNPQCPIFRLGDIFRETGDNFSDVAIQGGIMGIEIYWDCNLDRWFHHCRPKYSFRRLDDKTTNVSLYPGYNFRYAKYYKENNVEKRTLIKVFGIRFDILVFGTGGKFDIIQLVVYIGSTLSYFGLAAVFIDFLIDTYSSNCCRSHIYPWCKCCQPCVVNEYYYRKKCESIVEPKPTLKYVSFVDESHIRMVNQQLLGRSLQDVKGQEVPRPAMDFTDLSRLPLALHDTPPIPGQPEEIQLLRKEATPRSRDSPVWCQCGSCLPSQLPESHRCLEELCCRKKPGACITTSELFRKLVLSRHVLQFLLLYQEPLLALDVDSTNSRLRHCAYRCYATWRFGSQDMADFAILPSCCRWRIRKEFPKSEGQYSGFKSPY
Method: as §1, §2

Row | SMILES | IC50 (P2X7 receptor [1]) [nM] | IC50 (P2X7 receptor [2]) [nM] | IC50 (P2X7 receptor [3]) [nM]
1 | O=c1onc(Cc2c(F)cccc2Cl)n1Cc1ccccc1 [Example 21, 4-benzyl-3-[(2-chloro-6-fluorophenyl)methyl]-4,5-dihydro-1,2,4-oxadiazol-5-one] | 1000 to 10000 | 1000 to 10000 | 200 to 1000
2 | O=c1onc(Cc2c(F)cccc2Cl)n1Cc1ccccc1Cl [Example 22, 3-[(2-chloro-6-fluorophenyl)methyl]-4-[(2-chlorophenyl)methyl]-4,5-dihydro-1,2,4-oxadiazol-5-one] | 1000 to 10000 | 1000 to 10000 | 1000 to 10000
3 | O=c1onc(Cc2c(F)cccc2Cl)n1Cc1ccccc1C(F)(F)F [Example 23, 3-[(2-chloro-6-fluorophenyl)methyl]-4-{[2-(trifluoromethyl)phenyl]methyl}-4,5-dihydro-1,2,4-oxadiazol-5-one] | > 10000 | 1000 to 10000 | 1000 to 10000
4 | Cc1ncccc1Cn1c(Cc2c(F)cccc2Cl)noc1=O [Example 24, 3-[(2-chloro-6-fluorophenyl)methyl]-4-[(2-methylpyridin-3-yl)methyl]-4,5-dihydro-1,2,4-oxadiazol-5-one] | 1000 to 10000 | > 10000 | > 10000
5 | Cc1ccccc1Cn1c(Cc2c(F)cccc2Cl)noc1=O [Example 27, 3-[(2-chloro-6-fluorophenyl)methyl]-4-[(2-methylphenyl)methyl]-4,5-dihydro-1,2,4-oxadiazol-5-one] | 1000 to 10000 | 1000 to 10000 | 1000 to 10000
6 | COc1ccccc1Cn1c(Cc2c(F)cccc2Cl)noc1=O [Example 28, 3-[(2-chloro-6-fluorophenyl)methyl]-4-[(2-methoxyphenyl)methyl]-4,5-dihydro-1,2,4-oxadiazol-5-one] | 1000 to 10000 | > 10000 | 1000 to 10000
7 | O=c1onc(Cc2c(F)cccc2Cl)n1Cc1cccc2ccccc12 [Example 29, 3-[(2-chloro-6-fluorophenyl)methyl]-4-(naphthalen-1-ylmethyl)-4,5-dihydro-1,2,4-oxadiazol-5-one] | 1000 to 10000 | > 10000 | 1000 to 10000
8 | O=c1onc(Cc2c(F)cccc2Cl)n1Cc1cccc2ncccc12 [Example 30, 3-[(2-chloro-6-fluorophenyl)methyl]-4-(quinolin-5-ylmethyl)-4,5-dihydro-1,2,4-oxadiazol-5-one] | 1000 to 10000 | 1000 to 10000 | 1000 to 10000
9 | Cc1ncsc1Cn1c(Cc2c(F)cccc2Cl)noc1=O [Example 31, 3-[(2-chloro-6-fluorophenyl)methyl]-4-[(4-methyl-1,3-thiazol-5-yl)methyl]-4,5-dihydro-1,2,4-oxadiazol-5-one] | > 10000 | > 10000 | 1000 to 10000
10 | O=c1onc(Cc2c(F)cccc2Cl)n1Cc1ncco1 [Example 32, 3-[(2-chloro-6-fluorophenyl)methyl]-4-(1,3-oxazol-2-ylmethyl)-4,5-dihydro-1,2,4-oxadiazol-5-one] | > 10000 | > 10000 | > 10000
11 | O=c1onc(Cc2c(F)cccc2Cl)n1Cc1cncs1 [Example 33, 3-[(2-chloro-6-fluorophenyl)methyl]-4-(1,3-thiazol-5-ylmethyl)-4,5-dihydro-1,2,4-oxadiazol-5-one] | > 10000 | > 10000 | > 10000
12 | O=c1onc(Cc2c(F)cccc2Cl)n1Cc1nccs1 [Example 34, 3-[(2-chloro-6-fluorophenyl)methyl]-4-(1,3-thiazol-2-ylmethyl)-4,5-dihydro-1,2,4-oxadiazol-5-one] | > 10000 | > 10000 | > 10000
13 | O=c1onc(Cc2c(F)cccc2Cl)n1Cn1ccc(C(F)(F)F)n1 [Example 35, 3-[(2-chloro-6-fluorophenyl)methyl]-4-{[3-(trifluoromethyl)-1H-pyrazol-1-yl]methyl}-4,5-dihydro-1,2,4-oxadiazol-5-one] | 1000 to 10000 | 1000 to 10000 | 1000 to 10000
14 | Cc1noc(C)c1Cn1c(Cc2c(F)cccc2Cl)noc1=O [Example 36, 3-[(2-chloro-6-fluorophenyl)methyl]-4-[(dimethyl-1,2-oxazol-4-yl)methyl]-4,5-dihydro-1,2,4-oxadiazol-5-one] | > 10000 | > 10000 | 1000 to 10000
15 | O=c1onc(Cc2c(F)cccc2Cl)n1Cc1ccc(C(F)(F)F)nc1 [Example 37, 3-[(2-chloro-6-fluorophenyl)methyl]-4-{[6-(trifluoromethyl)pyridin-3-yl]methyl}-4,5-dihydro-1,2,4-oxadiazol-5-one] | 1000 to 10000 | > 10000 | 1000 to 10000
16 | O=c1onc(Cc2c(F)cccc2Cl)n1Cc1cncnc1 [Example 38, 3-[(2-chloro-6-fluorophenyl)methyl]-4-(pyrimidin-5-ylmethyl)-4,5-dihydro-1,2,4-oxadiazol-5-one] | > 10000 | > 10000 | > 10000
17 | O=c1onc(Cc2c(F)cccc2Cl)n1Cc1ncccn1 [Example 39, 3-[(2-chloro-6-fluorophenyl)methyl]-4-(pyrimidin-2-ylmethyl)-4,5-dihydro-1,2,4-oxadiazol-5-one] | > 10000 | > 10000 | > 10000
18 | O=c1onc(Cc2c(F)cccc2Cl)n1Cc1cnco1 [Example 40, 3-[(2-chloro-6-fluorophenyl)methyl]-4-(1,3-oxazol-5-ylmethyl)-4,5-dihydro-1,2,4-oxadiazol-5-one] | > 10000 | > 10000 | > 10000
19 | Cc1nnc(Cn2c(Cc3c(F)cccc3Cl)noc2=O)o1 [Example 41, 3-[(2-chloro-6-fluorophenyl)methyl]-4-[(5-methyl-1,3,4-oxadiazol-2-yl)methyl]-4,5-dihydro-1,2,4-oxadiazol-5-one] | > 10000 | > 10000 | > 10000
